Laboratory results taken from patent US20110160251A1, “ANIMAL ECTOPARASITE CONTROL COMPOSITION” (priority 2009, published 2011).

System: Haemaphysalis longicornis
Assay: Test Example 6: filter paper contact test, fatality of ticks, compound in single solvent
Assay type: in vivo
Conditions: 63.6 mg/ml, 0.2 ml on filter paper (treatment amount 2000 mg/m^2), after 24 hours at 25° C.; for Fatality rate of tick (%) Example 2 diisobutyl adipate: solvent diisobutyl adipate; for Fatality rate of tick (%) Example 1 diisopropyl adipate: solvent diisopropyl adipate; for Fatality rate of tick (%) Comparative Example 1 Propylene Carbonate: solvent propylene carbonate
Experimental: The halogen-containing organosulfur compound (33) or (35) was dissolved in a solvent such that the concentration of the halogen-containing organosulfur compound was 63.6 mg/ml to a test solution. A filter paper was put on the bottom face of a glass petri dish with 7 cm diameter and treated with 0.2 ml of the test solution (treatment amount: 2000 mg/m^2). On the filter paper, 10 Haemaphysalis longicornis were released and allowed to contact the filter paper. The glass petri dish was allowd to stand still at 25° C. After 24 hours, fatalities of the insects were observed.

Compound	Fatality rate of tick (%) Example 2 diisobutyl adipate [%]	Fatality rate of tick (%) Example 1 diisopropyl adipate [%]	Fatality rate of tick (%) Comparative Example 1 Propylene Carbonate [%]
CON=C1CCC(C(C#N)S(=O)(=O)CCC(F)(F)F)CC1 (stereo not drawn) [Compound (33), 2-[4-(methoxyimino)cyclohexyl]-2-(3,3,3-trifluoropropylsulfonyl)acetonitrile]	85	100	25
CCON=C1CCC(C(C#N)S(=O)(=O)CCC(F)(F)F)CC1 (stereo not drawn) [Compound (35), 2-[4-(ethoxyimino)cyclohexyl]-2-(3,3,3-trifluoropropylsufonyl)acetonitrile]	80	100	20
